Experimental data published in US20110178072A1, “STEREOSPECIFICITY OF METHYLSULFINYL REDUCTION” (priority 2008, published 2011).

Tests used:
yeast fRMsr = target: T1, yeast fRMsr (Saccharomyces cerevisiae, UniProt P36088); test: Activity assay of purified recombinant yeast fRMsr towards free Met sulfoxides (HPLC, OPA derivatization); type: biochemical, S. cerevisiae; conditions: for Activity of recombinant yeast fRMsr protein towards the substrate: recombinant His-tagged yeast fRMsr; for Specific activity for each Met-O: yfRMsr (yeast free methionine R-sulfoxide reductase), ± standard deviations from 3 independent experiments
T1 construct: His-tag (C); made in house; host or cells: E. coli BL21 (DE3), pET21b
T1 sequence (P36088 1-180): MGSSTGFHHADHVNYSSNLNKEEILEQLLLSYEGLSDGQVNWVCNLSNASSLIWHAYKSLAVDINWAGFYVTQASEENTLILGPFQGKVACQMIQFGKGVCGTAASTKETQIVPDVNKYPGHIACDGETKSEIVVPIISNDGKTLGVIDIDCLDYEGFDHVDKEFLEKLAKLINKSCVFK
Source text: Cloning and expression of yeast fRMsr—Characterization of S. cerevisiae fRMsr (YKL069W) is described in Le, D. T., et al. (2009) Functional analysis of free methionine-R-sulfoxide reductase from Saccharomyces cerevisiae. J Biol Chem., 284(7), 4354-4364. Briefly, a yeast fRMsr cDNA, which encodes a protein homologous to fRMsr from E. coli, was amplified from S. cerevisiae genomic DNA and subcloned into pET21b vector (Novagen) using primers 5′-AAACATATGATGGGCTCATCAACCGGGTTTC-3′ (sense; SEQ ID NO:1) and 5′-AAGCGGCCGCGACACATGATTTATTAATTAATTTAGCAAG-3′ (antisense; SEQ ID NO:2). After transformation into BL21 (DE3) E. coli, the subcloned sequence was verified by DNA sequencing. Cells with the plasmid in 500 mL LB medium containing 100 μg/mL ampicillin were grown until OD600 reached 0.6-0.8, followed by addition of IPTG to 0.3 mM. Protein expression was at 30° C. for 4 hours, followed by harvesting cells by centrifugation at 4,000 rpm for 5 minutes. Cells were washed with PBS and stored at −70° C. until use.
To purify the protein, a cell pellet was dissolved in resuspension buffer (Tris-HCl, pH 7.5, 15 mM imidazole, 300 mM NaCl), and PMSF was added to a final concentration of 0.5 mM. After sonication, the supernatant was collected by centrifugation at 8,000 rpm for 30 minutes. The supernatant was loaded onto a cobalt Talon resin (Clontech) pre-equilibrated with resuspension buffer. Following washing with the same buffer, the protein was eluted with elution buffer (Tris-HCl, pH 7.5, 300 mM imidazole, 300 mM NaCl). Fractions containing yeast fRMsr were pooled together and dialyzed overnight against PBS in a dialysis cassette (Pierce).
(§1) Activity assays of fRMsr—Reaction mixture (40 μL) included 50 mM DTT, 1 mM substrate (Met-RO or Met-SO), and purified enzyme or cell lysate prepared by treatment with CelLytic™M cell lysis reagent (Sigma). 20 μL of the reaction mixture was mixed with 2 μL of TCA and subjected to OPA derivatization as described above and then injected onto the column to measure endogenous Met level in the samples. An additional 20 μL from the same original reaction mixture were incubated at 37° C. for 30 minutes and then subjected to OPA derivatization by the same procedure using TCA. After derivatization of the sample (2-5 μL) by adding OPA solution to 100 μL as a final volume, 50 μL of the mixture were subjected to an HPLC separation as described above.

[1] = test system: yfRMsr transfected SK-Hep1; test: Specific activity of yfRMsr transfected SK-Hep1 cells towards free Met sulfoxides; type: biochemical, human; conditions: for Specific activity of fRMsr-transfected cells: fRMsr-transfected SK-Hep1 cells; for Specific activity for each Met-O: yfRMsr transfected SK-Hep1, ± standard deviations from 3 independent experiments
Protocol: Transfection of yeast fRMsr gene into SK-Hep1 cells—A 6 His-tag sequence was cloned at the C-terminus of yeast fRMsr, the sequence was inserted into a mammalian expression vector, pCI-neo (Promega), and the resulting construct was verified by DNA sequencing. […] To establish a stable cell line, cells were selected in the presence of 800 μg/mL G418 sulfate (Promega), and further maintained in the presence of 400 μg/mL G418 sulfate. Expression of recombinant fRMsr was verified by western blotting using anti-His-tag antibodies and Msr activities were assayed by an HPLC method using OPA derivatization.
as §1

SK-Hep1 cells = test: Growth and morphology of SK-Hep1 cells in Met-free DMEM supplemented with Met or Met sulfoxides (MTS proliferation assay, microscopy); type: cell-based, human; conditions: for Growth of SK-Hep1 cells: Met-free DMEM supplemented with 0.1 mM of the compound; for Morphology of SK-Hep1 cells: after 96 hours on medium with 0.1 mM of the compound
Protocol: Cell culture—SK-Hep1 (ATCC: HTB-52™) and fRMsr-transfected SK-Hep1 cells were cultured in DMEM or Met-free DMEM (GIBCO) media, supplemented with 0.1 mM Met, 0.1 mM Met-RO, 0.1 mM Met-SO, or 0.1 mM Met-RSO. […] Thus, 0.1 mM Met sulfoxides were used in the experiments described below. Cell culture experiments, with the exception of a proliferation assay, were carried out in 6-well plates, and cells were maintained at 37° C. in a 5% CO2 atmosphere. Proliferation Assay—Cell growth was quantified using colorimetric MTS assay (Promega). Cells in regular DMEM medium were plated in 96-well plates at 5×10^3 cells/well, washed with PBS, and specialized DMEM media were added that contained Met, Met-SO, Met-RO, or Met-RSO 24 hours after plating. To assay for cell proliferation, a tetrazolium compound [3-(4,5-dimethylthiazol-2-yl)-5-(3-carboxymethoxyphenyl)-2-(4-sulfophenyl)-2H-tetrazolium, inner salt; MTS] and an electron coupling reagent (phenazine methosulfate; PMS) were mixed according to the manufacturer's protocol and then 20 μL of the mixture were added to 100 μL of phenol red-excluded media that further replaced cell culture media. After 90 minutes of incubation at 37° C. in the atmosphere of 5% CO2, cell proliferation was measured at indicated time periods from 0 to 96 hours at 450 nm in a plate reader. Direct counting of viable cells using 0.2% trypan blue was done in 6-well plates. Microscopy—A Nikon TE-300 Widefield Microscope was used to prepare images of SK-Hep1 cells grown on different Met and Met sulfoxide media. Microscopy analyses were carried out in the University of Nebraska Microscopy Core Facility.

SMILES | Activity of recombinant yeast fRMsr protein towards the substrate (yeast fRMsr) | Specific activity for each Met-O (yeast fRMsr) | Specific activity of fRMsr-transfected cells [1] | Specific activity for each Met-O [1] | Growth of SK-Hep1 cells (SK-Hep1 cells) | Morphology of SK-Hep1 cells (SK-Hep1 cells)
C[S@@+]([O-])CC[C@H](N)C(=O)O [Met-RO, methionine-R-sulfoxide] | ≈ 33 nmol/min/mg protein | 30015 ± 2652 pmol/min/mg | ≈ 46.4 pmol/min/mg protein | 46.4 ± 5.0 pmol/min/mg | did not support growth | long and narrow
C[S@+]([O-])CC[C@H](N)C(=O)O [Met-SO, methionine-S-sulfoxide] | inactive | ND* (A signal corresponding to specific activity less than 5 pmol/min/mg is shown as ND (Not Detectable)) | ≈ 42.7 pmol/min/mg protein | 42.7 ± 5.9 pmol/min/mg | could also proliferate | resembled those maintained in the presence of Met
